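Following 48 hours of exposure in 96-well plates, responses at five concentrations were used to interpolate endpoints linearly. TGI: total growth inhibition.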
Tests used:
Experiment in all cases: DTP human tumour cell line panel, 48 h
[1] = test system: SW-620 colon
[2] = test system: HT29 colon
[3] = test system: KM20L2 colon
[4] = test system: HOP-92 NSCLC
[5] = test system: A549 NSCLC
[6] = test system: MALME-3M melanoma
[7] = test system: NCI-H23 lung
[8] = test system: KM12 colon
[9] = test system: CAKI-1 renal
[10] = test system: SNB-19 CNS
[11] = test system: TK-10 renal
[12] = test system: DLD-1 colon
[13] = test system: NCI-H522 lung
[14] = test system: DMS 273 small cell lung
[15] = test system: LXFL 529 NSCLC
[16] = test system: SF-539 CNS
[17] = test system: OVCAR-8 ovarian
[18] = test system: RXF 393 renal
[19] = test system: HCT-116 colon
[20] = test system: SK-MEL-28 melanoma
[21] = test system: M19-MEL melanoma
[22] = test system: MOLT-4 leukemia
[23] = test system: SR leukemia
[24] = test system: U251 CNS
[25] = test system: UO-31 renal
[26] = test system: NCI-H460 lung
[27] = test system: CCRF-CEM leukemia
[28] = test system: SF-295 CNS
[29] = test system: SNB-78 CNS
[30] = test system: IGROV1 ovarian
[31] = test system: EKVX NSCLC
[32] = test system: HL-60(TB) leukemia
[33] = test system: XF 498 CNS
[34] = test system: SK-MEL-5 melanoma
[35] = test system: A498 renal
[36] = test system: OVCAR-3 ovarian
[37] = test system: UACC-62 melanoma
[38] = test system: HOP-62 NSCLC
[39] = test system: SK-OV-3 ovarian
[40] = test system: SNB-75 CNS
[41] = test system: OVCAR-4 ovarian
[42] = test system: DMS 114 small cell lung
[43] = test system: 786-0 renal
[44] = test system: M14 melanoma
[45] = test system: SK-MEL-2 melanoma
[46] = test system: SF-268 CNS
[47] = test system: K-562 leukemia
[48] = test system: SN12C renal
[49] = test system: NCI-H226 lung
[50] = test system: ACHN renal
[51] = test system: HCT-15 colon
[52] = test system: LOX IMVI melanoma
[53] = test system: UACC-257 melanoma
[54] = test system: HCC-2998 colon
[55] = test system: HOP-18 NSCLC
[56] = test system: COLO 205 colon
[57] = test system: OVCAR-5 ovarian

Compound: C/C=C1\CCC2c3[nH]c4ccccc4c3CCN2C1 (stereo not given)
- TGI [1]: > 100 µM
- TGI [2]: > 100 µM
- TGI [3]: > 100 µM
- TGI [4]: 99.7 µM
- TGI [5]: > 100 µM
- TGI [6]: > 100 µM
- TGI [7]: > 100 µM
- TGI [8]: > 100 µM
- TGI [9]: > 100 µM
- TGI [10]: > 100 µM
- TGI [11]: > 100 µM
- TGI [12]: > 100 µM
- TGI [13]: > 100 µM
- TGI [14]: > 100 µM
- TGI [15]: > 100 µM
- TGI [16]: > 100 µM
- TGI [17]: > 100 µM
- TGI [18]: > 100 µM
- TGI [19]: > 100 µM
- TGI [20]: > 100 µM
- TGI [21]: > 100 µM
- TGI [22]: > 100 µM
- TGI [23]: > 100 µM
- TGI [24]: > 100 µM
- TGI [25]: > 100 µM
- TGI [26]: > 100 µM
- TGI [27]: > 100 µM
- TGI [28]: > 100 µM
- TGI [29]: > 100 µM
- TGI [30]: > 100 µM
- TGI [31]: > 100 µM
- TGI [32]: > 100 µM
- TGI [33]: > 100 µM
- TGI [34]: > 100 µM
- TGI [35]: > 100 µM
- TGI [36]: > 100 µM
- TGI [37]: > 100 µM
- TGI [38]: > 100 µM
- TGI [39]: > 100 µM
- TGI [40]: > 100 µM
- TGI [41]: > 100 µM
- TGI [42]: > 100 µM
- TGI [43]: > 100 µM
- TGI [44]: 75.8 µM
- TGI [45]: > 100 µM
- TGI [46]: > 100 µM
- TGI [47]: > 100 µM
- TGI [48]: > 100 µM
- TGI [49]: > 100 µM
- TGI [50]: > 100 µM

Compound: CCCCCCCCCCCCCCNCC(OCC)OCC
- TGI [1]: 31.9 µM
- TGI [2]: 11.4 µM
- TGI [3]: 24.9 µM
- TGI [4]: 26.4 µM
- TGI [51]: 23.2 µM
- TGI [5]: 37.6 µM
- TGI [6]: 32 µM
- TGI [52]: 32.5 µM
- TGI [7]: 30.5 µM
- TGI [8]: 22.2 µM
- TGI [10]: 31.8 µM
- TGI [11]: 32.7 µM
- TGI [12]: 28.3 µM
- TGI [13]: 19.9 µM
- TGI [15]: 29 µM
- TGI [16]: 29.7 µM
- TGI [17]: 40.4 µM
- TGI [18]: 22.9 µM
- TGI [53]: 31.2 µM
- TGI [19]: 23.1 µM
- TGI [20]: 32.5 µM
- TGI [21]: 30.5 µM
- TGI [24]: 30.5 µM
- TGI [25]: 22.9 µM
- TGI [54]: 27.3 µM
- TGI [26]: 34.3 µM
- TGI [27]: 24.5 µM
- TGI [28]: 30.6 µM
- TGI [29]: 33.5 µM
- TGI [30]: 30.3 µM
- TGI [31]: 34.7 µM
- TGI [32]: 11.5 µM
- TGI [33]: 27.4 µM
- TGI [34]: 27.9 µM
- TGI [35]: 28.5 µM
- TGI [36]: 33.7 µM
- TGI [37]: 33 µM
- TGI [38]: 31.6 µM
- TGI [39]: 32.8 µM
- TGI [40]: 23 µM
- TGI [41]: 28.6 µM
- TGI [42]: 25.7 µM
- TGI [43]: 33 µM
- TGI [44]: 27.5 µM
- TGI [45]: 28.6 µM
- TGI [55]: 30.3 µM
- TGI [46]: 36.7 µM
- TGI [48]: 27.9 µM
- TGI [49]: 37.6 µM
- TGI [56]: 28 µM
- TGI [50]: 27 µM
- TGI [57]: 28.6 µM

Compound: CC(C)(C)N=CN(C=C(c1ccccc1)c1ccccc1)C1CCCCC1
- TGI [1]: > 100 µM
- TGI [2]: > 100 µM
- TGI [3]: 46.7 µM
- TGI [4]: 82.4 µM
- TGI [51]: > 100 µM
- TGI [5]: > 100 µM
- TGI [6]: 35.8 µM
- TGI [52]: 92.3 µM
- TGI [7]: > 100 µM
- TGI [8]: > 100 µM
- TGI [9]: > 100 µM
- TGI [10]: > 100 µM
- TGI [11]: > 100 µM
- TGI [12]: > 100 µM
- TGI [14]: > 100 µM
- TGI [16]: > 100 µM
- TGI [17]: > 100 µM
- TGI [18]: 79.2 µM
- TGI [53]: > 100 µM
- TGI [19]: > 100 µM
- TGI [20]: > 100 µM
- TGI [21]: > 100 µM
- TGI [23]: 51 µM
- TGI [24]: > 100 µM
- TGI [26]: > 100 µM
- TGI [27]: > 100 µM
- TGI [28]: 93.3 µM
- TGI [29]: > 100 µM
- TGI [30]: > 100 µM
- TGI [31]: > 100 µM
- TGI [33]: 56.8 µM
- TGI [34]: 31.8 µM
- TGI [35]: 91.4 µM
- TGI [36]: > 100 µM
- TGI [37]: > 100 µM
- TGI [38]: > 100 µM
- TGI [40]: > 100 µM
- TGI [41]: > 100 µM
- TGI [42]: 55.3 µM
- TGI [43]: > 100 µM
- TGI [45]: > 100 µM
- TGI [55]: > 100 µM
- TGI [46]: > 100 µM
- TGI [47]: 39.9 µM
- TGI [48]: > 100 µM
- TGI [56]: > 100 µM
- TGI [50]: > 100 µM
- TGI [57]: > 100 µM

Compound: Cc1cnc(SCCN2CCN(C)CC2)nc1-c1cc2ccccc2s1
- TGI [1]: 24.7 µM
- TGI [2]: 18.7 µM
- TGI [4]: 18.3 µM
- TGI [51]: 24.7 µM
- TGI [5]: 16 µM
- TGI [6]: 31.6 µM
- TGI [52]: 18.6 µM
- TGI [7]: 34.3 µM
- TGI [8]: 32.2 µM
- TGI [9]: 16.4 µM
- TGI [11]: 33.1 µM
- TGI [12]: 25.4 µM
- TGI [13]: 29.6 µM
- TGI [14]: 18.1 µM
- TGI [15]: 27 µM
- TGI [16]: 25.1 µM
- TGI [17]: 25.8 µM
- TGI [18]: 22.7 µM
- TGI [53]: 23.5 µM
- TGI [19]: 26.8 µM
- TGI [20]: 32.7 µM
- TGI [22]: 7.5 µM
- TGI [23]: 8.46 µM
- TGI [24]: 21.7 µM
- TGI [25]: 20.8 µM
- TGI [54]: 26.9 µM
- TGI [26]: 14.6 µM
- TGI [27]: 14.2 µM
- TGI [28]: 21.2 µM
- TGI [29]: 32.5 µM
- TGI [34]: 14.6 µM
- TGI [35]: 29.8 µM
- TGI [36]: 24.6 µM
- TGI [37]: 32.2 µM
- TGI [38]: 4.81 µM
- TGI [39]: 13.8 µM
- TGI [40]: 24.6 µM
- TGI [41]: 34.1 µM
- TGI [42]: 20.5 µM
- TGI [43]: 24.3 µM
- TGI [44]: 27.4 µM
- TGI [45]: 30.9 µM
- TGI [48]: 21.3 µM
- TGI [49]: 25.3 µM
- TGI [56]: 29.2 µM
